Test systems include DLD-1; DMS-114; DMS-273; HOP-18; M19-MEL; RXF 631; SNB-78; LXFL 529; XF498.
Common to all, as to assay: NCI tumour cell line growth inhibition, 48 h

From ChEMBL document CHEMBL1201862, “PubChem BioAssay data set” (2004) come the findings set out here.

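48-hour exposure; five concentrations; linearly interpolated endpoints. GI50: concentration for 50% inhibition of growth.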 Activity calls are given as the source filed them. Cut-off read from the data, not from the text of the source: active = GI50 up to about 1.1 µM and inactive = higher.

`Cc1cc(C)nc(NS(=O)(=O)c2ccc(Nc3c4ccccc4nc4c(C(=O)Nc5ccc(S(=O)(=O)N=C(N)N)cc5)cccc34)cc2)n1`: the GI50 with DLD-1, in the assay with DMS-114, in the assay with DMS-273, in the assay with HOP-18, with M19-MEL and in the assay with RXF 631 was > 100 µM (inactive) throughout. Moreover, the GI50 in the assay on SNB-78 was > 100 µM (inactive).

Regarding `CC1(C)COC(c2cccnc2/C=N/O)=N1`, the GI50 in the assay on DLD-1, in the assay on DMS-273, in the assay on HOP-18, in the assay with LXFL 529, with M19-MEL and in the assay with RXF 631 was > 100 µM (inactive) each time. Besides, the GI50 in the assay with SNB-78 and with XF498 was > 100 µM (inactive) throughout.

In the case of `N#Cc1cc([N+](=O)[O-])ccc1NC(=O)C(=O)C(C(=O)/C=C/c1ccccc1)C1OC(=O)c2ccccc21` (configuration not stated), the GI50 in the assay with DLD-1, in the assay on DMS-114, with HOP-18, in the assay with LXFL 529, in the assay on M19-MEL and in the assay with RXF 631 was > 100 µM (inactive) in each case. Also, the GI50 in the assay on SNB-78 and in the assay with XF498 was > 100 µM (inactive) in each case.

For `C#CCC(O)c1ccccc1C(O)CC#C` (configuration not stated), the GI50 in the assay on DLD-1 was > 100 µM (inactive); in the assay on DMS-114, > 100 µM (inactive); with DMS-273, > 100 µM (inactive); with LXFL 529, > 100 µM (inactive); in the assay on M19-MEL, > 100 µM (inactive); in the assay with SNB-78, 77.8 µM (inactive).

With `CCC(C)(C)C(=O)O[C@H]1C[C@@H](C)C=C2C=C[C@H](C)[C@H](CC[C@@H]3C[C@@H](O)CC(=O)O3)[C@H]21` [SIMVASTATIN], the GI50 was > 30 µM (inactive) with DLD-1; 23.7 µM (inactive) in the assay with DMS-114; 2.88 µM (inactive) with DMS-273; > 30 µM (inactive) in the assay on HOP-18; 6.67 µM (inactive) in the assay with LXFL 529; 1.56 µM (inactive) with M19-MEL. For the same compound, the GI50 is 0.55 µM (active) in the assay with RXF 631, > 30 µM (inactive) in the assay with SNB-78 and > 30 µM (inactive) in the assay on XF498.

Consider `C/C(=N/NC(=O)C[N+](C)(C)C)C(CN(C)C)C(=O)Nc1ccccc1` (configuration not stated), for which the GI50 with DLD-1, with DMS-114, with DMS-273, in the assay with HOP-18, with LXFL 529 and with M19-MEL was > 100 µM (inactive) throughout. In the assay on XF498, the GI50 was > 100 µM (inactive).

For the compound `Cc1c2cc[n+](CCN3CCCCC3)cc2c(C)c2c1[nH]c1ccc(O)cc12`, the GI50 in the assay on DLD-1 was 4.6 µM (inactive); in the assay with DMS-114 it was 1.51 µM (inactive); in the assay on DMS-273, 1.72 µM (inactive); in the assay on HOP-18, 13.1 µM (inactive); in the assay with M19-MEL, 0.982 µM (active); with SNB-78, 3.75 µM (inactive).

For the compound `COC(=O)C12CCC(CC1=O)C2(C)C` (configuration not stated), the GI50 with DLD-1 was > 100 µM (inactive); in the assay with DMS-114, 99.5 µM (inactive); in the assay with DMS-273, > 100 µM (inactive); with HOP-18 it was > 100 µM (inactive); with XF498, > 100 µM (inactive).

Take `CC1=C(C(=O)O)N2C(=O)[C@@H](NC(=O)C(c3ccccc3)N3CSC(=S)N(C(C)C)C3)C2SC1` (some centres not stated): the GI50 in the assay with DLD-1, in the assay with DMS-273, with HOP-18, in the assay with LXFL 529, in the assay with M19-MEL and in the assay with SNB-78 was > 100 µM (inactive) in each case. Besides, the GI50 with XF498 was > 100 µM (inactive).

Take `COc1cc(-c2c(C)c(C)nc(OC)c2C#N)cc(OC)c1OC`: the GI50 was > 100 µM (inactive) in the assay on DLD-1; 49.8 µM (inactive) in the assay on DMS-114; 46.1 µM (inactive) in the assay with HOP-18; 41.9 µM (inactive) in the assay on LXFL 529; > 100 µM (inactive) with M19-MEL; 92 µM (inactive) with SNB-78.

With `N#CC1CC(c2ccccc2)Nc2cc(Cl)ccc2N1` (configuration not stated), the GI50 with DLD-1 was 28.9 µM (inactive); in the assay on DMS-114 it was 5.78 µM (inactive); in the assay with DMS-273 it was 31.2 µM (inactive); in the assay on HOP-18, > 87.1 µM (inactive); in the assay on LXFL 529, 21 µM (inactive); with M19-MEL, 44.8 µM (inactive). Moreover, the GI50 in the assay on SNB-78 was 50.7 µM (inactive); in the assay on XF498, 29.7 µM (inactive).

As for `CCOC(=O)/C(C(=O)c1ccccc1)=C1\N[C@H](C(=O)OCC)CS1`, the GI50 was > 100 µM (inactive) with DLD-1; 16.3 µM (inactive) in the assay with HOP-18; > 100 µM (inactive) in the assay with LXFL 529; > 100 µM (inactive) in the assay on RXF 631; > 100 µM (inactive) in the assay with SNB-78; > 100 µM (inactive) with XF498.

Consider `N#CC(C#N)c1ccc(C(=O)N2CCC[C@H]2CO)cc1`, for which the GI50 with DLD-1, with DMS-114, in the assay with DMS-273, with HOP-18, in the assay on LXFL 529 and in the assay with M19-MEL was > 100 µM (inactive) each time. The GI50 in the assay on RXF 631 was > 100 µM (inactive).

For the compound `COCCN1C2=CCCCC2=Nc2c1nc(N)[nH]c2=O`, the GI50 in the assay on DLD-1, with DMS-114, with DMS-273, with HOP-18, with LXFL 529 and with M19-MEL was > 100 µM (inactive) in each case. The GI50 with RXF 631, with SNB-78 and in the assay on XF498 was > 100 µM (inactive) in each case.

As for `N#CC(C(=O)C(N)=O)c1ccccc1Cl` (configuration not stated), the GI50 in the assay on DLD-1, with DMS-114, in the assay on DMS-273, with HOP-18, with LXFL 529 and with M19-MEL was > 100 µM (inactive) in each case. The GI50 with RXF 631 and in the assay on XF498 was > 100 µM (inactive) in each case.

Regarding `NN1C(=O)C(CCO)S/C1=N/N=C1/SC(CCO)C(=O)N1N` (configuration not stated), the GI50 in the assay on DLD-1, in the assay with DMS-114, in the assay on HOP-18, in the assay on LXFL 529, in the assay on M19-MEL and in the assay on SNB-78 was > 100 µM (inactive) each time. Also, the GI50 in the assay with XF498 is 16.1 µM (inactive).

`CC(=O)OC1CC2(c3ccccc3)C(=O)c3ccccc3N2O1` (configuration not stated): the GI50 in the assay on DLD-1, in the assay with DMS-114, in the assay on DMS-273, in the assay with HOP-18, in the assay with LXFL 529 and in the assay with M19-MEL was > 100 µM (inactive) each time. Moreover, the GI50 in the assay on SNB-78 and in the assay on XF498 was > 100 µM (inactive) each time.

`O=C(O)[C@@H]1OCCOCCO[C@@H](C(=O)O)[C@H](C(=O)O)OCCOCCO[C@H]1C(=O)O`: the GI50 is > 42.1 µM (inactive) with DLD-1; > 50.8 µM (inactive) in the assay on DMS-114; > 100 µM (inactive) with DMS-273; > 100 µM (inactive) in the assay on HOP-18; > 100 µM (inactive) with LXFL 529; > 100 µM (inactive) with M19-MEL. Moreover, the GI50 with SNB-78 was > 100 µM (inactive); in the assay on XF498, > 30.3 µM (inactive).

As to `O=C(/C=C/c1ccccc1)CC1OC(=O)c2ccccc21` (configuration not stated), the GI50 was > 100 µM (inactive) with DLD-1; 46.3 µM (inactive) in the assay with DMS-114; > 100 µM (inactive) in the assay on DMS-273; 14.9 µM (inactive) in the assay on HOP-18; 46.7 µM (inactive) in the assay with LXFL 529; 45.8 µM (inactive) with M19-MEL. Besides, in the assay with XF498, the GI50 is > 100 µM (inactive).

In the case of `CN(Cc1cnc2nc(N)nc(N)c2n1)c1ccc(C(=O)NC(CCC(=O)O)C(=O)O)c2ccccc12` (configuration not stated), the GI50 in the assay on DLD-1 was 0.01 µM (active); in the assay with DMS-114, 0.000847 µM (active); in the assay on DMS-273, 0.01 µM (active); in the assay on HOP-18 it was > 100 µM (inactive); in the assay on LXFL 529 it was 0.00135 µM (active); with M19-MEL it was 0.01 µM (active). Besides, the GI50 in the assay with SNB-78 was > 65 µM (inactive); in the assay on XF498, > 100 µM (inactive).

Regarding `CCCC1N2CCCCC2[C@@H]2c3[nH]c4ccccc4c3CCN12` (some centres not stated), the GI50 in the assay on DLD-1, in the assay on DMS-114, in the assay with DMS-273, in the assay with HOP-18, with LXFL 529 and with M19-MEL was > 100 µM (inactive) throughout. Also, the GI50 in the assay with SNB-78 is 53.8 µM (inactive); with XF498, > 100 µM (inactive).

Regarding `O=c1cccccc1NCCCCCCCCCNc1cccccc1=O`, the GI50 was 10.8 µM (inactive) in the assay on DLD-1; 1.35 µM (inactive) in the assay with DMS-114; 12.5 µM (inactive) in the assay on DMS-273; 8.97 µM (inactive) with LXFL 529; 15.2 µM (inactive) in the assay on M19-MEL; 17.1 µM (inactive) with SNB-78. Moreover, in the assay on XF498, the GI50 was 7.36 µM (inactive).

For `c1ccc(SC2(Sc3ccccc3)CCCC2)cc1`, the GI50 with DLD-1, with DMS-114, in the assay on DMS-273, in the assay on M19-MEL, with RXF 631 and in the assay on SNB-78 was > 100 µM (inactive) each time. Besides, the GI50 with XF498 is > 100 µM (inactive).

In the case of `Oc1ccc2ccccc2c1/N=N/c1ccc(F)cc1`, the GI50 in the assay on DMS-114, in the assay on DMS-273, with HOP-18, with LXFL 529 and in the assay with M19-MEL was > 100 µM (inactive) throughout.
